This experiment addresses T1, Nitric oxide synthase, endothelial (Bos taurus, UniProt P29473).
T1 sequence (P29473 whole entry): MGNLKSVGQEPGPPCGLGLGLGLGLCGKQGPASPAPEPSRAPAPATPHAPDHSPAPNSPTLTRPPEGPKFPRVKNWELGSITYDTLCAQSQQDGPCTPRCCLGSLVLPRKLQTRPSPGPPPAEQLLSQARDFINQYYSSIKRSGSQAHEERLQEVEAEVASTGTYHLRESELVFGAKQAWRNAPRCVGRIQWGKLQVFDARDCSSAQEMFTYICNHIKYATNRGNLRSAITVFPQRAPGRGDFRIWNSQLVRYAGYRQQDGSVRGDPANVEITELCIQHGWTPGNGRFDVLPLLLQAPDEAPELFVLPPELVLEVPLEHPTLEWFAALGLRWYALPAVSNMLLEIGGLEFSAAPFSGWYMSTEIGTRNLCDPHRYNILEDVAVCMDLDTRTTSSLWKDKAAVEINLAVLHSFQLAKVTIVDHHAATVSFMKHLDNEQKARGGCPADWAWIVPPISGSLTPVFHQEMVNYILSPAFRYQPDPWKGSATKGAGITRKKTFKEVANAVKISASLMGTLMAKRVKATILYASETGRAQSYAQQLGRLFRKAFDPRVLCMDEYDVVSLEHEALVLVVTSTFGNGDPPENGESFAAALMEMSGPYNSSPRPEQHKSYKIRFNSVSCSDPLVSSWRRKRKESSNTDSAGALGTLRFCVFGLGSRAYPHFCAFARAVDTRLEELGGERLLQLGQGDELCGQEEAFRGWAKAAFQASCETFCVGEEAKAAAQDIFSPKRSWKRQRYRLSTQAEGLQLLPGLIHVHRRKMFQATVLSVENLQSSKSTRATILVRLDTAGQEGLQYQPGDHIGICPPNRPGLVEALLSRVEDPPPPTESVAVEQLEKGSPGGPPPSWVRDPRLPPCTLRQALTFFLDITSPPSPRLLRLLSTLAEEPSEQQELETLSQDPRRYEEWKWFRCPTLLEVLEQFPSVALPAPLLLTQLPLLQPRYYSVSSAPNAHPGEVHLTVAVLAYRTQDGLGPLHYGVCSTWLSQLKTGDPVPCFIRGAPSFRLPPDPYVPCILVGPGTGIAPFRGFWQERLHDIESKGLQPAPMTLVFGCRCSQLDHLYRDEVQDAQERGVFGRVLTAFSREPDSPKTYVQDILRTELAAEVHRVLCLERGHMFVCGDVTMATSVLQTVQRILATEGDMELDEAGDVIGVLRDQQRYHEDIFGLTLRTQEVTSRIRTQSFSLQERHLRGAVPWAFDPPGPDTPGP
Description: Polarization Assay. Conditions: pH 7.5; 25 °C. As for the experimental part: eNOS was diluted to varying concentrations in buffer containing 50 mM inorganic phosphate, 50 mM KCl, and 5 mM DTT, pH 7.5. A spectrophotometer was used to determine the concentration of the fluorescein-labeled peptide using the extinction coefficient for fluorescein (ε492 nm = 79,000 M^-1). Peptides (100 nM) were added to samples containing varying concentrations of eNOS and incubated for 1 h at room temperature. Samples were then plated on 384-well Grenier Bio-One solid black microplates in triplicate. Polarization was measured with a Tecan Infinite M1000 Pro apparatus in fluorescent polarization mode using 470-nm excitation and 515-nm emission filters.

As to H-TTATVTKYWF-OH [TTATVTKYWF], binding was put at a Kd of 23 nM.

Take H-TTFTVTKYWF-OH [TTFTVTKYWF]: binding was characterised by a dissociation constant (Kd) of 42 nM.

Source of the values: BindingDB's records for doi:10.1074/jbc.M113.528695 (St. Paul's Hospital's Centre of Heart and Lung …, 2014).
